According to patent US20250152719A1, “FUSED IMIDE DERIVATIVE” (Chia Tai Tianqing Pharmaceutical Group Co., Ltd., priority 2021, published 2025):
Like-named read-outs stand apart in the source and are kept apart here.

Key:
[1] = Mouse pharmacokinetics; assay type: in vivo, ICR mice
Experimental: ICR mice weighing 18-22 g were randomized into groups of 9 after 3-5 days of acclimatization and then intragastrically given the test compound solution at a dose of 10 mg/kg. Plasma samples to be tested were prepared by taking blood from the orbit at time points of 15 min, 30 min, 1 h, 2 h, 3 h, 4 h, 6 h, 8 h, 10 h, and 24 h. 20 μL of each plasma sample to be detected and a standard curve sample were taken, and an acetonitrile solution containing an internal standard was added. […] Pharmacokinetic parameters were fitted using a non-compartmental model (see Table 5).

[2] = system: OCI-LY10-BTK(C481S) cells; assay: Inhibitory activity on OCI-LY10-BTK(C481S) cell proliferation (CCK-8); assay type: cell-based; conditions: 72 h incubation, IC50 per method, unit inferred
Experimental: OCI-LY10(C481S) cells in the logarithmic growth phase were collected and added to a centrifuge tube, adjusted to a cell density of 5×10^4 cells/mL, and seeded in a 96-well plate (100 μL/well). Meanwhile, compounds were added using a nanoliter pipettor such that the final concentrations of the compounds were 5000 nM-0.31 nM; the addition was performed in duplicate, and meanwhile, a control was set. After another 72 h of incubation in the cell incubator, the detection reagent CCK-8 (manufacturer: Dojindo Laboratories, Beijing; 10 μL/well) was added. After 3 h of incubation in the cell incubator, absorbance values were detected at 450 nm using a PerkinElmer Envision microplate reader, the four-parameter analysis was performed, the dose-response curves were fit, and IC50 was calculated.

[3] = In vitro liver microsomal stability, human; assay type: in vitro ADME; conditions: 0.5 mg/mL microsomes, NADPH, 37° C., 1 h
Experimental: (§1) Liver microsome incubation samples were prepared by mixing a PBS buffer (pH 7.4), a liver microsome solution (0.5 mg/mL), a test compound, and an NADPH+MgCl2 solution and incubated at 37° C. and 300 rpm for 1 h. Zero-hour samples were prepared by mixing a PBS buffer (pH 7.4), a liver microsome solution (0.5 mg/mL), and a test compound. An acetonitrile solution containing an internal standard was added to the samples, and supernatants were prepared by protein precipitation, diluted, and then assayed by LC/MS/MS.

[4] = In vitro liver microsomal stability, mouse; conditions: 0.5 mg/mL microsomes, NADPH, 37° C., 1 h
Experimental: as §1

[5] = system: TMD-8 xenograft tumors; assay: In vivo drug efficacy, TMD-8 mouse subcutaneous xenograft tumors; design: species or system NOD-SCID mice; conditions: 30 mg/kg, qd, i.g.
Experimental: TMD-8 mouse subcutaneous xenograft tumors: TMD-8 (WT) cells at a concentration of 1×10^8/mL were inoculated under aseptic conditions into the right side armpit of NOD-SCID mice at 0.1 mL/mouse. After subcutaneous grafting, the animals were divided into groups with 6 animals in each group when the tumor volume reached about 188 mm^3 (or 200 mm^3):
model group: vehicle, 6 mice; compound administration groups: 30 mg/kg, qd, i.g., 6 mice.
The vehicle or the test compound was intragastrically given at a volume of 4 mL/kg, once daily for 16 consecutive days. The tumor volume was measured 2-3 times a week, and meanwhile, the mice were weighed and the data were recorded; the general behaviors of the animals were observed every day. After all dosing was complete, the animals were sacrificed on day 17, and the tumors were removed and weighed.
The tumor volume and the tumor growth inhibition were calculated using the following formulae:
Tumor volume (TV)=(Length×Width^2)/2.
Tumor growth inhibition (TGI)=(1−tumor weight of treatment group/tumor weight of model group)×100%.

[6] = system: TMD8-BTK(C481S) cells; assay: Inhibitory activity on TMD8-BTK(C481S) cell proliferation (CCK-8); assay type: cell-based; conditions: 72 h, 72 h incubation
Procedure, shortened: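 Cells seeded at 8×10^4 cells/mL, incubated overnight, then treated in duplicate with compounds at 5000 nM-0.31 nM for 72 h. Viability by CCK-8 (4 h, absorbance 450 nm); IC50 from four-parameter dose-response fits.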

[7] = ICR, mouse, plasma, iv, 1 mg/kg, Mouse i.v. 1 mpk
[8] = ICR, mouse, plasma, iv, 1 mg/kg, Mouse i.v. 1 mpk, read-out: AUC
[9] = ICR, mouse, plasma, po, 10 mg/kg, Mouse i.g. 10 mpk
[10] = ICR, mouse, plasma, po, 10 mg/kg, Mouse i.g. 10 mpk, read-out: AUC
[11] = ICR, mouse, plasma, po, 10 mg/kg, Mouse i.g. 10 mpk, read-out: Cmax

clearance [1, 7] [mL/min/kg] | half-life [1, 7] [h] | AUC [1, 8] [ng·h/mL] | half-life [1, 9] [h] | AUC [1, 10] [ng·h/mL] | Cmax [1, 11] [ng/mL] | F ([1]; Mouse i.g. 10 mpk) [%] | Human liver microsome Residuals at 60 min [3] [%] | Mouse liver microsome Residuals at 60 min [4] [%] | SMILES | also measured
9.33 | 1.4 | 1760 | 2.4 | 7690 | 766 | 44.0 | 56.0 |  | CN1CCN([C@@H]2CCCN(c3cnc(C(N)=O)c(Nc4ccc(N5CCC(CN6CCc7ccc8c(C9CCC(=O)NC9=O)noc8c7CC6)CC5)cc4)n3)C2)C1=O (some centres unmarked) [Compound 27] | IC50 ([2]; 72 h): 62 pM
 |  |  |  |  |  | 26.0 | 55.0 | 71.0 | CN1CCN([C@@H]2CCCN(c3cnc(C(N)=O)c(Nc4ccc(C5CCC(N6Cc7ccc8c(C9CCC(=O)NC9=O)noc8c7C6)CC5)cc4)n3)C2)C1=O (some centres unmarked) [Compound 33] | AUC ([1]; Mouse i.g. 10 mpk): 20971 ng·h/mL; Cmax ([1]; Mouse i.g. 10 mpk): 1555 ng/mL; t1/2 ([1]; Mouse i.g. 10 mpk): 3.2 h; AUC ([1]; Mouse i.v. 1 mpk): 7987 ng·h/mL; Cl ([1]; Mouse i.v. 1 mpk): 2.17 mL/min/kg; t1/2 ([1]; Mouse i.v. 1 mpk): 2.6 h; IC50 [2]: 370 pM
2.65 | 1.6 | 6140 | 2.9 | 35600 | 3850 | 57.98 |  | 65.4 | CN1CCN([C@@H]2CCCN(c3cnc(C(N)=O)c(Nc4ccc(C5CCN(C6CN(c7ccc8c(C9CCC(=O)NC9=O)noc8c7)C6)CC5)cc4)n3)C2)C1=O (some centres unmarked) [Compound 10] | TGI d 17 ([5]; 16 days, tumor weight on day 17): 97.5%; TV on d 0 Mean ± SD ([5]; day 0 (baseline at grouping)): 226 ± 29 mm^3; TV on d 12 Mean ± SD ([5]; day 12): 235 ± 57 mm^3; TV on d 15 Mean ± SD ([5]; day 15): 209 ± 60 mm^3; IC50 [6]: 2400 pM
